# ChEMBL document CHEMBL1155237, “Selective inhibitors of the mutant B-Raf pathway: discovery of a potent and orally bioavailable aminoisoquinoline” (J Med Chem, 2009)
# Columns and labels:
# [1] = target: 5'-AMP-activated protein kinase catalytic subunit alpha-2 (Homo sapiens) (UniProt P54646); assay: Inhibition of AMPKalpha2 assessed as enzyme activity at 1 uM relative to untreated control; set-up: scale not given: the % may be the effect or the level left
# [2] = target: Serine/threonine-protein kinase 25 (Homo sapiens) (UniProt O00506); assay: Inhibition of YSK1 assessed as enzyme activity at 1 uM relative to untreated control; set-up: scale not given: the % may be the effect or the level left
# [3] = target: Protein kinase C epsilon type (Homo sapiens) (UniProt Q02156); assay: Inhibition of PRKCE assessed as enzyme activity at 1 uM relative to untreated control; set-up: scale not given: the % may be the effect or the level left
# Protein kinase C epsilon type (Homo sapiens), sequence (Q02156 whole entry): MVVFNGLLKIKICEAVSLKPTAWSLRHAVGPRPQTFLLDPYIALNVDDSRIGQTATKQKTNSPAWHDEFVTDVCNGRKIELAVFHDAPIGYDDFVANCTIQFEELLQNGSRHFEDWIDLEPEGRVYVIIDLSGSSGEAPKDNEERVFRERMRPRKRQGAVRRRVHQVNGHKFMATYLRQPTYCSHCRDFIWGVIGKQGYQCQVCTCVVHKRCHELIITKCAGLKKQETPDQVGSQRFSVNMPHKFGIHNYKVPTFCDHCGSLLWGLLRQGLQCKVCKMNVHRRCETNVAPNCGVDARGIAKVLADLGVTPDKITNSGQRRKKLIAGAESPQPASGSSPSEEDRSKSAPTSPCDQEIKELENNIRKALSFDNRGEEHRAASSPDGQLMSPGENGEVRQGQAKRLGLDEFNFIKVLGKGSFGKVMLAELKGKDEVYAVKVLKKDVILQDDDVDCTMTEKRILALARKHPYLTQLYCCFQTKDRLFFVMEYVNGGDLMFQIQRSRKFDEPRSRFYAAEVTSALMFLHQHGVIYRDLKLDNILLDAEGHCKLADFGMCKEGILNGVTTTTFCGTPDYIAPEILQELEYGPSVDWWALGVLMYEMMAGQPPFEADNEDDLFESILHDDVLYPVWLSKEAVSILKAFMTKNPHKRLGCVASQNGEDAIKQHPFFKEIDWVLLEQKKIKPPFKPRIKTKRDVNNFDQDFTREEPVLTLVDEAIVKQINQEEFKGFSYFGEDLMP
# [4] = target: Dual specificity mitogen-activated protein kinase kinase 4 (Homo sapiens) (UniProt P45985); assay: Inhibition of MEK4 assessed as enzyme activity at 1 uM relative to untreated control; set-up: scale not given: the % may be the effect or the level left
# Dual specificity mitogen-activated protein kinase kinase 4 (Homo sapiens), sequence (P45985 whole entry): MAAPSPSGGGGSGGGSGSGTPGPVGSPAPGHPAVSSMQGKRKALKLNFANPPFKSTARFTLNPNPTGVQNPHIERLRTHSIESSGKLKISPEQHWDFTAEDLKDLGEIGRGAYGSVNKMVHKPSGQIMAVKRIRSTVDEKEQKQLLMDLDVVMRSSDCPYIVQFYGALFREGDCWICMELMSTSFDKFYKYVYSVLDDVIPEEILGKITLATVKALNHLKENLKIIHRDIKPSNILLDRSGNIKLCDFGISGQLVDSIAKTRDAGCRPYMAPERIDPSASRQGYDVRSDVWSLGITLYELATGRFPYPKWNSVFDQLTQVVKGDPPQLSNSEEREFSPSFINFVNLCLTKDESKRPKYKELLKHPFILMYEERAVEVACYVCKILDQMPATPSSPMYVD
# [5] = target: Proto-oncogene tyrosine-protein kinase Src (Homo sapiens) (UniProt P12931); assay: Inhibition of SRC assessed as enzyme activity at 1 uM relative to untreated control; set-up: scale not given: the % may be the effect or the level left
# [6] = target: Macrophage-stimulating protein receptor (Homo sapiens) (UniProt Q04912); assay: Inhibition of MST1R assessed as enzyme activity at 1 uM relative to untreated control; set-up: scale not given: the % may be the effect or the level left
# [7] = target: Insulin receptor-related protein (Homo sapiens) (UniProt P14616); assay: Inhibition of INSRR assessed as enzyme activity at 1 uM relative to untreated control; set-up: scale not given: the % may be the effect or the level left
# [8] = target: STE20-like serine/threonine-protein kinase (Homo sapiens) (UniProt Q9H2G2); assay: Inhibition of SLK assessed as enzyme activity at 1 uM relative to untreated control; set-up: scale not given: the % may be the effect or the level left
# [9] = target: Atypical kinase COQ8A, mitochondrial (Homo sapiens) (UniProt Q8NI60); assay: Inhibition of ADCK3 assessed as enzyme activity at 1 uM relative to untreated control; set-up: scale not given: the % may be the effect or the level left
# Atypical kinase COQ8A, mitochondrial (Homo sapiens), sequence (Q8NI60 163-647 limits assumed): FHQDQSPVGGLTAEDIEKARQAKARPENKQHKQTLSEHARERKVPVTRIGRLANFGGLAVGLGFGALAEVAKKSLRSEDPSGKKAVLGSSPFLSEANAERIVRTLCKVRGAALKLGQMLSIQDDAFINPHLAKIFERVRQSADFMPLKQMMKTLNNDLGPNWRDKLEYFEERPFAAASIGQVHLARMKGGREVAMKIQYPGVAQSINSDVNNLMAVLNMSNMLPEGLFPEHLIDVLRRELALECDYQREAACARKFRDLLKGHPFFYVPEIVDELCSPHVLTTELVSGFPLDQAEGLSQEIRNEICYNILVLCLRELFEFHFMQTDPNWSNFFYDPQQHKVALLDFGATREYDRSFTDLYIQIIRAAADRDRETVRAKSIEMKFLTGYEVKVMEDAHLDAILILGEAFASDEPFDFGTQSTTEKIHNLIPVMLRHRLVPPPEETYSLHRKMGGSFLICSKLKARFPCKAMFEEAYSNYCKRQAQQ
# [10] = target: Mitogen-activated protein kinase 7 (Homo sapiens) (UniProt Q13164); assay: Inhibition of ERK5 assessed as enzyme activity at 1 uM relative to untreated control; set-up: scale not given: the % may be the effect or the level left
# [11] = target: Ephrin type-B receptor 1 (Homo sapiens) (UniProt P54762); assay: Inhibition of EPHB1 assessed as enzyme activity at 1 uM relative to untreated control; set-up: scale not given: the % may be the effect or the level left
# [12] = target: Protein-tyrosine kinase 6 (Homo sapiens) (UniProt Q13882); assay: Inhibition of PTK6 assessed as enzyme activity at 1 uM relative to untreated control; set-up: scale not given: the % may be the effect or the level left
# [13] = target: Calcium/calmodulin-dependent protein kinase type 1G (Homo sapiens) (UniProt Q96NX5); assay: Inhibition of CAMK1G assessed as enzyme activity at 1 uM relative to untreated control; set-up: scale not given: the % may be the effect or the level left
# [14] = system: Epidermal growth factor receptor (Homo sapiens), P00533 [G719S]; assay: Inhibition of EGFR G719S mutant assessed as enzyme activity at 1 uM relative to untreated control; format: protein assay; set-up: scale not given: the % may be the effect or the level left
# [15] = target: Discoidin domain-containing receptor 2 (Homo sapiens) (UniProt Q16832); assay: Inhibition of DDR2 assessed as enzyme activity at 1 uM relative to untreated control; set-up: scale not given: the % may be the effect or the level left
# [16] = target: Mitogen-activated protein kinase kinase kinase 3 (Homo sapiens) (UniProt Q99759); assay: Inhibition of MAP3K3 assessed as enzyme activity at 1 uM relative to untreated control; set-up: scale not given: the % may be the effect or the level left
# [17] = target: Ribosomal protein S6 kinase alpha-1 (Homo sapiens) (UniProt Q15418); assay: Inhibition of RPS6KA1 kinase domain 2 assessed as enzyme activity at 1 uM relative to untreated control; set-up: scale not given: the % may be the effect or the level left
# Ribosomal protein S6 kinase alpha-1 (Homo sapiens), sequence (Q15418 whole entry, the tested form may be a part): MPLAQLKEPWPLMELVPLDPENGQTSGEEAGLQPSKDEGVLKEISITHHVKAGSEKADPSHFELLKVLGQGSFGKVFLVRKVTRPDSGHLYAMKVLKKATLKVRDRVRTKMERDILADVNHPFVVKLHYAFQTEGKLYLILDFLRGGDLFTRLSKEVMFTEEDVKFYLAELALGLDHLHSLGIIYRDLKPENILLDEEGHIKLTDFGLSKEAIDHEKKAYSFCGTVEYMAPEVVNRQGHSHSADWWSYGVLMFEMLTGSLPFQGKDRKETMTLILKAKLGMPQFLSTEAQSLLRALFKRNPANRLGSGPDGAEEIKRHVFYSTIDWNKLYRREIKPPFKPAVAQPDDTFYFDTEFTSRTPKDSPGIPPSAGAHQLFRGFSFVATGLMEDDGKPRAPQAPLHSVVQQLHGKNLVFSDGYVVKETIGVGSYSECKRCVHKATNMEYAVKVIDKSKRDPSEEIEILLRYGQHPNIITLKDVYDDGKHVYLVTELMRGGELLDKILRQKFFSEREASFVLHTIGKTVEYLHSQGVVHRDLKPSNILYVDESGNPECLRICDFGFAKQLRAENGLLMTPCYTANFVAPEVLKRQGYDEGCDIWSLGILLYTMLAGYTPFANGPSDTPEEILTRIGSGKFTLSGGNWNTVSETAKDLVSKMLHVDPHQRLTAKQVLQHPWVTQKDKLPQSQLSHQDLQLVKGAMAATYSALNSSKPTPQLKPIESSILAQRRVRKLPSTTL
# [18] = target: Casein kinase II subunit alpha' (Homo sapiens) (UniProt P19784); assay: Inhibition of CSNK2A2 assessed as enzyme activity at 1 uM relative to untreated control; set-up: scale not given: the % may be the effect or the level left
# [19] = target: Serine/threonine-protein kinase N2 (Homo sapiens) (UniProt Q16513); assay: Inhibition of PKN2 assessed as enzyme activity at 1 uM relative to untreated control; set-up: scale not given: the % may be the effect or the level left
# [20] = system: Mus musculus; assay: Inhibition of ERK phosphorylation in human A375 SQ2 cells xenografted CD1 mouse at 2 mg/kg, po qd after 6 hrs; format: functional; conditions: CD1, A-375, 6 h
# [21] = target: Serine/threonine-protein kinase D1 (Homo sapiens) (UniProt Q15139); assay: Inhibition of PRKD1 assessed as enzyme activity at 1 uM relative to untreated control; set-up: scale not given: the % may be the effect or the level left
# [22] = target: Interleukin-1 receptor-associated kinase 3 (Homo sapiens) (UniProt Q9Y616); assay: Inhibition of IRAK3 assessed as enzyme activity at 1 uM relative to untreated control; set-up: scale not given: the % may be the effect or the level left
# [23] = target: Ribosomal protein S6 kinase alpha-6 (Homo sapiens) (UniProt Q9UK32); assay: Inhibition of RPS6KA6 kinase domain 2 assessed as enzyme activity at 1 uM relative to untreated control; set-up: scale not given: the % may be the effect or the level left
# [24] = target: Serine/threonine-protein kinase pim-2 (Homo sapiens) (UniProt Q9P1W9); assay: Inhibition of PIM2 assessed as enzyme activity at 1 uM relative to untreated control; set-up: scale not given: the % may be the effect or the level left
# [25] = target: Bone morphogenetic protein receptor type-1B (Homo sapiens) (UniProt O00238); assay: Inhibition of BMPR1B assessed as enzyme activity at 1 uM relative to untreated control; set-up: scale not given: the % may be the effect or the level left
# Bone morphogenetic protein receptor type-1B (Homo sapiens), sequence (O00238 whole entry): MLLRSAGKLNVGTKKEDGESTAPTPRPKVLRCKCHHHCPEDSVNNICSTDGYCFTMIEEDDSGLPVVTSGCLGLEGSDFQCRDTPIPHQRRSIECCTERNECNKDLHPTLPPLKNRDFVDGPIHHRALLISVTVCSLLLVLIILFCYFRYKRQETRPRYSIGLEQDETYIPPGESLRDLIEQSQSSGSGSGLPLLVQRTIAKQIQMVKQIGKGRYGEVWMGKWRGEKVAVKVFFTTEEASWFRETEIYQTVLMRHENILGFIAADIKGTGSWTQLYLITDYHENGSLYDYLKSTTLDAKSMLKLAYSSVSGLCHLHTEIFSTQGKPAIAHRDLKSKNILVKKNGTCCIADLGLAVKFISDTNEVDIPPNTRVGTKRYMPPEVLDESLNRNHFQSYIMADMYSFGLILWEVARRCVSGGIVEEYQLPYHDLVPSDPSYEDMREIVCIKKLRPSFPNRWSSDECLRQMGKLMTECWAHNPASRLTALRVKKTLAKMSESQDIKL
# [26] = target: Serine/threonine-protein kinase ULK2 (Homo sapiens) (UniProt Q8IYT8); assay: Inhibition of ULK2 assessed as enzyme activity at 1 uM relative to untreated control; set-up: scale not given: the % may be the effect or the level left
# [27] = target: Fibroblast growth factor receptor 3 (Homo sapiens) (UniProt P22607); assay: Inhibition of FGFR3 assessed as enzyme activity at 1 uM relative to untreated control; set-up: scale not given: the % may be the effect or the level left
# [28] = target: Testis-specific serine/threonine-protein kinase 1 (Homo sapiens) (UniProt Q9BXA7); assay: Inhibition of TSSK1 assessed as enzyme activity at 1 uM relative to untreated control; set-up: scale not given: the % may be the effect or the level left
# [29] = target: Platelet-derived growth factor receptor alpha (Homo sapiens) (UniProt P16234); assay: Inhibition of PDGFRA assessed as enzyme activity at 1 uM relative to untreated control; set-up: scale not given: the % may be the effect or the level left
# [30] = target: Fibroblast growth factor receptor 4 (Homo sapiens) (UniProt P22455); assay: Inhibition of FGFR4 assessed as enzyme activity at 1 uM relative to untreated control; set-up: scale not given: the % may be the effect or the level left
# [31] = target: NT-3 growth factor receptor (Homo sapiens) (UniProt Q16288); assay: Inhibition of TRKC assessed as enzyme activity at 1 uM relative to untreated control; set-up: scale not given: the % may be the effect or the level left
# [32] = system: Proto-oncogene tyrosine-protein kinase receptor Ret (Homo sapiens), P07949 [V804M]; assay: Inhibition of RET V804M mutant assessed as enzyme activity at 1 uM relative to untreated control; set-up: scale not given: the % may be the effect or the level left
# [33] = target: Atypical kinase COQ8B, mitochondrial (Homo sapiens) (UniProt Q96D53); assay: Inhibition of ADCK4 assessed as enzyme activity at 1 uM relative to untreated control; set-up: scale not given: the % may be the effect or the level left
# [34] = system: Mast/stem cell growth factor receptor Kit (Homo sapiens), P10721 [V559D,T670I]; assay: Inhibition of KIT V559D,T670I mutant assessed as enzyme activity at 1 uM relative to untreated control; set-up: scale not given: the % may be the effect or the level left
# Mast/stem cell growth factor receptor Kit (Homo sapiens), P10721 [V559D,T670I], sequence (P10721 whole entry V559D/T670I): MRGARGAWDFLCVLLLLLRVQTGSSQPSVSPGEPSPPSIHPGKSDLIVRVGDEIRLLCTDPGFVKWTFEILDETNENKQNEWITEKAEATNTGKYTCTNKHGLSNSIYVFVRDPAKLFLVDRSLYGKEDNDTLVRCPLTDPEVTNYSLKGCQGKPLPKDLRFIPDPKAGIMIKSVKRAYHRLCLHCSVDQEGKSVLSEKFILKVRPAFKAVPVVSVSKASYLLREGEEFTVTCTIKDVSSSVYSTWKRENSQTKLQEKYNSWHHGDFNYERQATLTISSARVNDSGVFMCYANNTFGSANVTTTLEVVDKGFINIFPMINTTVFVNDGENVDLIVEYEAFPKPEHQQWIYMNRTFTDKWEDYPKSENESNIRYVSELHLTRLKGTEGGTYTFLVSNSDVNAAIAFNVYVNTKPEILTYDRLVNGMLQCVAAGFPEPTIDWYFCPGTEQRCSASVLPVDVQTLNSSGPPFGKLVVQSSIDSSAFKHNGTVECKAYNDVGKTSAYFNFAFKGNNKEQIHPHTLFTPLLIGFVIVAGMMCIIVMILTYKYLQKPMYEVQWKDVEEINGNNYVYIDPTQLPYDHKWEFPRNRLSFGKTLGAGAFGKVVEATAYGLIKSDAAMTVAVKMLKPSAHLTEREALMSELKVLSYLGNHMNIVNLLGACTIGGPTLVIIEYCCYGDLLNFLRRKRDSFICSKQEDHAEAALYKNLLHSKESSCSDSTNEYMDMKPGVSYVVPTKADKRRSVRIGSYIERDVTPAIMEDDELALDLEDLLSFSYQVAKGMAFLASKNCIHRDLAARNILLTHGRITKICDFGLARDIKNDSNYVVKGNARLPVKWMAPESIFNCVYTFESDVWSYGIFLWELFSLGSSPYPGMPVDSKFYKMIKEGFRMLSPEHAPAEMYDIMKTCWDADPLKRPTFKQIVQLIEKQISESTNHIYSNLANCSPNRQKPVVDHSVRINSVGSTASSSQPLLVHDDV
# [35] = target: Serine/threonine-protein kinase 32C (Homo sapiens) (UniProt Q86UX6); assay: Inhibition of YANK3 assessed as enzyme activity at 1 uM relative to untreated control; set-up: scale not given: the % may be the effect or the level left
# Serine/threonine-protein kinase 32C (Homo sapiens), sequence (Q86UX6 whole entry): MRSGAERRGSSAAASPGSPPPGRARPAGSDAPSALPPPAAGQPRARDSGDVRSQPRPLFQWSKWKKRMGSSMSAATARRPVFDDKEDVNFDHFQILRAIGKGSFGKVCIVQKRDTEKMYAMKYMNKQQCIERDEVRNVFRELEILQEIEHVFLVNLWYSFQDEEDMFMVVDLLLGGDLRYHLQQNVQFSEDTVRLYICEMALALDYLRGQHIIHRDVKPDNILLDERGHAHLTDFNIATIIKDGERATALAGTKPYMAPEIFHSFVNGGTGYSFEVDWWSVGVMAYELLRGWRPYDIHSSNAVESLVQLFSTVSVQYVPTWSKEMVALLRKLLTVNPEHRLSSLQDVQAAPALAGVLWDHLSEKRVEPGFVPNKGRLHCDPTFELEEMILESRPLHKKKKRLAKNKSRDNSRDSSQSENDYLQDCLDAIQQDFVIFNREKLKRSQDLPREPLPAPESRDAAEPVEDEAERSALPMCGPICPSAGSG
# [36] = target: Myosin light chain kinase 2, skeletal/cardiac muscle (Homo sapiens) (UniProt Q9H1R3); assay: Inhibition of MYLK2 assessed as enzyme activity at 1 uM relative to untreated control; set-up: scale not given: the % may be the effect or the level left
# [37] = target: Glycogen synthase kinase-3 beta (Homo sapiens) (UniProt P49841); assay: Inhibition of GSK3B assessed as enzyme activity at 1 uM relative to untreated control; set-up: scale not given: the % may be the effect or the level left
# 5'-AMP-activated protein kinase catalytic subunit alpha-2 (Homo sapiens), sequence (P54646 whole entry, looked up): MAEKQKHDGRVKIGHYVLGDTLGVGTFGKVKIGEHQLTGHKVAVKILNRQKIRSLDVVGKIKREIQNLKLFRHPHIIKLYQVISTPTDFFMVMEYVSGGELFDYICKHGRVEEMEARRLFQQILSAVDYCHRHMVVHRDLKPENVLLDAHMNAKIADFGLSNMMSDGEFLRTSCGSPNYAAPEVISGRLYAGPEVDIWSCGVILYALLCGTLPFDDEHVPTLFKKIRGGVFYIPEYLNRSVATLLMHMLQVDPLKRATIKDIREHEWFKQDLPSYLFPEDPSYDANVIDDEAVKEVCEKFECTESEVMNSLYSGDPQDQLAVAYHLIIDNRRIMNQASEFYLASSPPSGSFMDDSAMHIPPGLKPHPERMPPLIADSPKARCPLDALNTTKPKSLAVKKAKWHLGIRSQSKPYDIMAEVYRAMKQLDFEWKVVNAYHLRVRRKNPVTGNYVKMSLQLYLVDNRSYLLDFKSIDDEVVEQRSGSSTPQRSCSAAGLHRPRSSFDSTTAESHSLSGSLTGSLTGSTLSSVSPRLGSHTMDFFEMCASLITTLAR
smiles,measurement,setting,value
Cc1ccc2c(Nc3ccc(Cl)cc3)nccc2c1Nc1ncccc1-c1ncnc2[nH]cnc12.Cl.Cl.Cl,Activity,[1],96%
same,Activity,[2],100%
same,Activity,[3],100%
same,Activity,[4],93%
same,Activity,[5],73%
same,Activity,[6],97%
same,Activity,[7],78%
same,Activity,[8],40%
same,Activity,[9],100%
same,Activity,[10],95%
same,Activity,[11],2%
same,Activity,[12],13%
same,Activity,[13],100%
same,Activity,[14],92%
same,Activity,[15],6.6%
same,Activity,[16],40%
same,Activity,[17],96%
same,Activity,[18],100%
same,Activity,[19],86%
same,inhibition in vivo at 2 mg/kg,[20],69%
same,Activity,[21],100%
same,Activity,[22],81%
same,Activity,[23],86%
same,Activity,[24],100%
same,Activity,[25],96%
same,Activity,[26],100%
same,Activity,[27],100%
same,Activity,[28],71%
same,Activity,[29],88%
same,Activity,[30],100%
same,Activity,[31],2.2%
same,Activity,[32],96%
same,Activity,[33],77%
same,Activity,[34],77%
same,Activity,[35],84%
same,Activity,[36],100%
same,Activity,[37],100%
